{"source": "patent US11571480B2", "about": "“Multi-ligand drug conjugates and uses thereof” (priority 2015, dated 2023)", "key": {"[1]": {"test_system": "ovarian cancer cell SKOV3", "assay": "Cytotoxicity test of conjugate LDC11B", "format": "cell-based, human", "details": "SKOV3, incubated 15-30 min, then 2-3 days", "procedure": "(§1) Culture medium: RPMI 1640 Medium, no folic acid\n(§2) 1) human lung cancer cell H460, ovarian cancer cell SKOV3, human embryonic kidney cell 293A were incubated at 37° C., 5% CO2 in RPMI 1640 medium containing 10% fetal bovine serum, the cells were passaged every 2-3 days.\n(§3) 2) human lung cancer cell H460, ovarian cancer cell SKOV3, human embryonic kidney cell 293A were plated at 1×10^3 cells per well (96-well plate) and incubated for 8-12 h at 37° C., 5% CO2.\n(§4) 3) Stock solutions of LDC conjugates or control were prepared in PBS solution. 100 μL/well of serially diluted LDC conjugates or control was added to the cells in the plate and incubated for 15-30 min at 37° C., 5% CO2. The culture medium in the wells was then removed by aspiration and the cells were incubated in fresh culture medium without conjugates (150 μL/well) for 2-3 days at 37° C., 5% CO2.\n(§5) 4) CellTiter 96® Aqueous One Solution Cell Proliferation Assay (Promega) was added to each well to measure the amount of […] cells, and the plate was incubated in an incubator for 1 h at 37° C., 5% CO2.\n(§6) 5) The plate was read at 490 nm on a microplate reader, and the cell survivals were compared for cells with or without the treatment of LDC conjugates. The LDC drug concentrations that are required for 50% cell death (IC50 values) were determined."}, "[2]": {"test_system": "human lung cancer cell H460", "assay": "Cytotoxicity test of conjugate LDC11B", "format": "cell-based", "details": "H460, incubated 15-30 min, then 2-3 days", "procedure": "as §1, §2, §3, §4, §5, §6"}, "[3]": {"assay": "Cytotoxicity test of conjugate LDC11B", "format": "cell-based, human", "details": "human, 293A embryonic kidney cells, incubated 15-30 min, then 2-3 days", "procedure": "as §1, §2, §3, §4, §5, §6"}, "[4]": {"test_system": "Transplanted H460 tumor", "assay": "Inhibitory assay of conjugates LDC11A, LDC11B against xenograf tumors", "format": "in vivo, nude mice", "procedure": "(§7) Animal: nude mice, aged 6-8 weeks, female\n(§8) 1) human large cell lung cancer cell H460, ovarian cancer cell SKOV3, breast cancer cell line HCC1954, and human breast cancer cell SK-BR-3 were incubated at 37° C., 5% CO2 in IMDM medium containing 10% fetal bovine serum, the cells were passaged every 2-3 days.\n(§9) 2) generation of tumors: 7×10^6 tumor cells were subcutaneously injected into the back of nude mice, and the mice were grouped for treatment after the tumor sizes were as large as about 100˜200 mm^3.\n(§10) 3) treatment: 3 mice/group, treated with LDC11A, LDC11B, as well as controls MMAE and PBS with doses of 5 and 10 mg/kg every 5 days, three injections.\n(§11) 4) the physical performance, body weights and tumor sizes of the animals were monitored. The number of animal death was recorded during the experiment."}, "[5]": {"test_system": "Transplanted HCC1954 tumor", "assay": "Inhibitory assay of conjugates LDC11A, LDC11B against xenograf tumors", "format": "in vivo, nude mice", "details": "for Body weight of mice / Tumor size: HCC1954 tumor, 10 mg/kg", "procedure": "as §7, §8, §9, §10, §11"}, "[6]": {"test_system": "Transplanted SKOV3 tumor", "assay": "Inhibitory assay of conjugates LDC11A, LDC11B against xenograf tumors", "format": "in vivo, nude mice", "details": "for Body weight of mice / Tumor size: SKOV3 tumor, 10 mg/kg", "procedure": "as §7, §8, §9, §10, §11"}, "[7]": {"details": "H460 tumor, 10 mg/kg, Before Injection"}, "[8]": {"details": "H460 tumor, 10 mg/kg, Five days after Injection 1"}, "[9]": {"details": "H460 tumor, 10 mg/kg, Five days after Injection 2"}, "[10]": {"details": "H460 tumor, 10 mg/kg, Five days after Injection 3"}}}
{"smiles": "CC[C@H](C)[C@@H]([C@@H](CC(=O)N1CCC[C@H]1[C@H](OC)[C@@H](C)C(=O)N[C@H](C)[C@@H](O)c1ccccc1)OC)N(C)C(=O)[C@@H](NC(=O)[C@H](C(C)C)N(C)C(=O)OCc1ccc(NC(=O)[C@H](CCCNC(N)=O)NC(=O)[C@@H](NC(=O)CCCCCN2C(=O)CC(SC[C@H](NC(=O)CNC(=O)[C@@H]3CCCN3C(=O)[C@H](CCCNC(=N)N)NC(=O)[C@H](CC(C)C)NC(=O)CNC(=O)[C@H](Cc3ccc(O)cc3)NC(=O)[C@H](CO)NC(=O)[C@H](Cc3c[nH]c4ccccc34)NC(=O)[C@H](Cc3c[nH]cn3)NC(=O)[C@@H](N)CCC(=O)O)C(=O)O)C2=O)C(C)C)cc1)C(C)C", "note": "(stereo partly drawn) [LDC11A, P11-MC-Val-Cit-PAB-MMAE, reference compound]", "values": [{"measurement": "IC50", "setting": "[1]", "value": 341, "unit": "nM"}, {"measurement": "IC50", "setting": "[2]", "value": 667, "unit": "nM"}, {"measurement": "IC50", "setting": "[3]", "value": 1310, "unit": "nM"}, {"measurement": "animal death / toxicity (in words)", "setting": "[4]; H460 tumor, 10 mg/kg", "value": "dead after the first injection"}, {"measurement": "Body weight of mice", "setting": "[4]; [7]", "value": 24.46, "unit": "g"}, {"measurement": "Body weight of mice", "setting": "[4]; [8]", "value": "Death"}, {"measurement": "Body weight of mice", "setting": "[4]; H460 tumor, 10 mg/kg, Three days after Injection 1", "value": 18.25, "unit": "g"}]}
{"smiles": "CC[C@H](C)[C@@H]([C@@H](CC(=O)N1CCC[C@H]1[C@H](OC)[C@@H](C)C(=O)N[C@H](C)[C@@H](O)c1ccccc1)OC)N(C)C(=O)[C@@H](NC(=O)[C@H](C(C)C)N(C)C(=O)OCc1ccc(NC(=O)[C@H](CCCNC(N)=O)NC(=O)[C@@H](NC(=O)CCCCCN2C(=O)CC(SC[C@H](NC(=O)CNC(=O)[C@@H]3CCCN3C(=O)[C@H](CCCNC(=N)N)NC(=O)[C@H](CC(C)C)NC(=O)CNC(=O)[C@H](Cc3ccc(O)cc3)NC(=O)[C@H](CO)NC(=O)[C@H](Cc3c[nH]c4ccccc34)NC(=O)[C@H](Cc3c[nH]cn3)NC(=O)[C@H](CCC(=O)O)NC(=O)CC[C@H](NC(=O)c3ccc(NCC4=Nc5c([nH]c(N)nc5=O)NC4)cc3)C(=O)O)C(=O)O)C2=O)C(C)C)cc1)C(C)C", "note": "(some centres unmarked) [LDC11B]", "values": [{"measurement": "IC50", "setting": "[3]", "value": 524, "unit": "nM"}, {"measurement": "tumor growth (in words)", "setting": "[4]; H460, three injections at 10 mg/kg", "value": "can inhibit the tumor growth"}, {"measurement": "Body weight of mice", "setting": "[4]; [7]", "value": 21.85, "unit": "g"}, {"measurement": "Tumor size", "setting": "[4]; [7]", "value": 225.32, "unit": "mm^3"}, {"measurement": "Body weight of mice", "setting": "[4]; [8]", "value": 22.2, "unit": "g"}, {"measurement": "Tumor size", "setting": "[4]; [8]", "value": 108.73, "unit": "mm^3"}, {"measurement": "Body weight of mice", "setting": "[4]; [9]", "value": 22.55, "unit": "g"}, {"measurement": "Tumor size", "setting": "[4]; [9]", "value": 0, "unit": "mm^3"}, {"measurement": "Body weight of mice", "setting": "[4]; [10]", "value": 22.38, "unit": "g"}, {"measurement": "Tumor size", "setting": "[4]; [10]", "value": 0, "unit": "mm^3"}, {"measurement": "tumor growth (in words)", "setting": "[5]; HCC1954, three injections at 10 mg/kg", "value": "can inhibit the tumor growth"}, {"measurement": "Body weight of mice", "setting": "[5]; Before Injection", "value": 22.76, "unit": "g"}, {"measurement": "Tumor size", "setting": "[5]; Before Injection", "value": 218.76, "unit": "mm^3"}, {"measurement": "Body weight of mice", "setting": "[5]; Five days after Injection 1", "value": 22.56, "unit": "g"}, {"measurement": "Tumor size", "setting": "[5]; Five days after Injection 1", "value": 87.51, "unit": "mm^3"}, {"measurement": "Body weight of mice", "setting": "[5]; Five days after Injection 2", "value": 23.15, "unit": "g"}, {"measurement": "Tumor size", "setting": "[5]; Five days after Injection 2", "value": 0, "unit": "mm^3"}, {"measurement": "Body weight of mice", "setting": "[5]; Five days after Injection 3", "value": 23.48, "unit": "g"}, {"measurement": "Tumor size", "setting": "[5]; Five days after Injection 3", "value": 0, "unit": "mm^3"}, {"measurement": "tumor growth (in words)", "setting": "[6]; SKOV3, three injections at 10 mg/kg", "value": "can inhibit the tumor growth"}, {"measurement": "Body weight of mice", "setting": "[6]; Before Injection", "value": 22.11, "unit": "g"}, {"measurement": "Tumor size", "setting": "[6]; Before Injection", "value": 169.22, "unit": "mm^3"}, {"measurement": "Body weight of mice", "setting": "[6]; Five days after Injection 1", "value": 24.28, "unit": "g"}, {"measurement": "Tumor size", "setting": "[6]; Five days after Injection 1", "value": 137.66, "unit": "mm^3"}, {"measurement": "Body weight of mice", "setting": "[6]; Five days after Injection 2", "value": 23.6, "unit": "g"}, {"measurement": "Tumor size", "setting": "[6]; Five days after Injection 2", "value": 76.13, "unit": "mm^3"}, {"measurement": "Body weight of mice", "setting": "[6]; Five days after Injection 3", "value": 24.92, "unit": "g"}, {"measurement": "Tumor size", "setting": "[6]; Five days after Injection 3", "value": 27.84, "unit": "mm^3"}]}
